Source: US20250368666A1, “INDAZOLE COMPOUNDS” (TYRA BIOSCIENCES, INC., priority 2022, published 2025)

How the values were obtained:
[1] = biological target: T1, FGFR1 (Homo sapiens, UniProt P11362); experiment: Kinase binding assay (kinase-tagged T7 phage, affinity beads, qPCR), Kd; conditions: read-out: FGFR1 (Kd nM)
T1 construct: made in house; host or cells: E. coli (BL21-derived), T7 phage
Procedure, shortened: (§1)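 T7 phage displaying each kinase, grown in a BL21-derived E. coli host at 32° C until lysis, competed with test compound for biotinylated ligand immobilised on streptavidin beads. Bead-bound kinase was eluted and quantified by qPCR. Kd came from an 11-point 3-fold dilution series fitted to the Hill equation with slope fixed at −1.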

[2] = biological target: T2, FGFR2 (Homo sapiens, UniProt P21802); experiment: as above; conditions: read-out: FGFR2 (Kd nM)
T2 construct: made in house; host or cells: E. coli (BL21-derived), T7 phage
Procedure, shortened: as §1

[3] = biological target: T3, FGFR3 (Homo sapiens, UniProt P22607); experiment: as above; conditions: read-out: FGFR3 (Kd nM)
T3 construct: made in house; host or cells: E. coli (BL21-derived), T7 phage
Procedure, shortened: as §1

[4] = biological target: T4, FGFR3 (V555M) (Homo sapiens, UniProt P22607, V555M); experiment: as above; conditions: V555M mutant; read-out: FGFR3 (V555M) (Kd nM)
T4 construct: made in house; host or cells: E. coli (BL21-derived), T7 phage
Procedure, shortened: as §1

[5] = biological target: T5, FGFR4 (Homo sapiens, UniProt P22455); experiment: as above; conditions: read-out: FGFR4 (Kd nM)
T5 construct: made in house; host or cells: E. coli (BL21-derived), T7 phage
Procedure, shortened: as §1

[6] = tested on: HuH7 cell line (FGF19 amplification); experiment: Cancer cell line cell viability assay (Cell Titer-Glo), 120 hr; type: cell-based; conditions: Homo sapiens, Huh-7
Excerpt: Experimental Purpose: To detect the change of intracellular ATP by Cell Titer-Glo® and to evaluate the inhibitory effect of the compounds on cancer cell lines by determining the in vitro IC50 value of the compounds.
Cell Titer-Glo® 2.0 Luminescent cell viability assay reagent was purchased from Promega (Madison, WI). KG-1, KATO-III, and MDA-MB-453 cell lines were purchased from American Type Culture Collection (Manassas, VA). RT112/84 cell line was purchased from Millipore-Sigma (St. Louis, MO). HuH7 cells were purchased from Seikisui Xenotech (Kansas City, KS). RT112/84 and MDA-MB-453 cells were cultured in RPMI1640 media supplemented with 10% fetal bovine serum. KG-1 and KATO-III cell lines were cultured in IMDM media supplemented with 20% FBS. HuH7 cells were cultured in IMDM media supplemented with 10% FBS. Cultures were maintained at 37° C. in a humidified atmosphere of 5% CO2 and 95% air.
Cell Viability Assay Procedure: Cells were plated in 96-well clear bottom/white plates (Corning #3903) at a range of densities depending on the optimal assay window (5,000-20,000 cells/well in […] of media), incubated overnight. The next day, test compound DMSO stock solutions were made at 10 mM and […] final concentration. Compounds were then added to cells in a 9-dose, 4-fold dilution series starting at 3 μM with an HP 300e Digital Dispenser (each dose was applied in triplicate). DMSO was backfilled to each well up to 301 nL total volume of test compound+DMSO, and a total of 301 nL DMSO was added to a control/no test compound well in triplicate. The cells in cell culture plates were incubated with the compounds at 37° C. and 5% CO2 for 72 hours-120 hours depending on the cell line. Then 50 μl of Cell Titer Glo 2.0 reagent was added to each well of the cell culture plates. The contents were covered from light and mixed on an orbital shaker at room temperature for minimum of 10 min. Luminescence was recorded by a Clariostar Plus Microplate Reader (BMG Labtech, Cary, NC). Cells were assessed as a percentage of DMSO only treated control cells. Curves were plotted and IC50 values were calculated using the GraphPad Prism 9 program based on a sigmoidal dose-response equation (log (inhibitor) vs. response—Variable slope, 4-parameter).

[7] = tested on: KATO-III cell line (FGFR2 amplification); experiment: Cancer cell line cell viability assay (Cell Titer-Glo), 72 hr; type: cell-based; conditions: Homo sapiens, KATO III
Procedure, shortened: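 5,000-20,000 cells/well o/n; cpd 9-pt 4x dil from 3 μM, n=3; 37° C/5% CO2; CTG 2.0 lumi; % DMSO ctrl; 4PL IC50.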

[8] = tested on: KG-1 cell line (FGFR 1-fusion); experiment: as above; type: cell-based; conditions: Homo sapiens, KG-1, KG-1 cell line (FGFR1-fusion)
Procedure, shortened: (§2)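 Luminescent ATP read-out (Cell Titer-Glo 2.0) after compound exposure, normalised to DMSO-only wells. Dosing: 9 concentrations, 4-fold steps, top 3 μM, triplicates. IC50 derived by log(inhibitor) vs. response 4-parameter fit.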

[9] = tested on: RT112/84 cell line (FGFR3-fusion); experiment: as above; type: cell-based; conditions: Homo sapiens, RT112/84, RT112/84 cell line (FGFR3-fusion)
Procedure, shortened: as §2

T3 sequence (P22607 23-806): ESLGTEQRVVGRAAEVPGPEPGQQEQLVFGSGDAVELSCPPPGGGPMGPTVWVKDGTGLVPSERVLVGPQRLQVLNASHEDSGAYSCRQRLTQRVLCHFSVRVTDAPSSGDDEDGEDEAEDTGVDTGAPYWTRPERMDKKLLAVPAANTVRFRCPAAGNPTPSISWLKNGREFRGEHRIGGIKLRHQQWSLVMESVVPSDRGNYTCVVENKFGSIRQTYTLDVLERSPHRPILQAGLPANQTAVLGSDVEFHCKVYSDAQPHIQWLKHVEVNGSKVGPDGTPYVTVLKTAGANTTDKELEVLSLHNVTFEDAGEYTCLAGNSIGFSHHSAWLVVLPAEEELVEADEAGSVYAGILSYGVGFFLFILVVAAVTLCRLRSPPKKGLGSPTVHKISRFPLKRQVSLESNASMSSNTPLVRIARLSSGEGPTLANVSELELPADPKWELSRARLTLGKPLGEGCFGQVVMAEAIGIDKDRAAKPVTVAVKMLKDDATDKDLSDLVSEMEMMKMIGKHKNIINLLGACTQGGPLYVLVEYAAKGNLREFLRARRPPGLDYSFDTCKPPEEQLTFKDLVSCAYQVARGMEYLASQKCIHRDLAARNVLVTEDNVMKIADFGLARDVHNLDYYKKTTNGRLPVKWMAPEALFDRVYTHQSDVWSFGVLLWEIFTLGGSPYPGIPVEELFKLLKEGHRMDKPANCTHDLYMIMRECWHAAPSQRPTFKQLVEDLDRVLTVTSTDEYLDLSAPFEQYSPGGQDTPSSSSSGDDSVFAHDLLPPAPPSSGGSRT
T4 sequence (P22607 23-806 V555M): as the sequence (P22607 23-806) above, with V533M counted along it
T2 sequence (P21802 22-821): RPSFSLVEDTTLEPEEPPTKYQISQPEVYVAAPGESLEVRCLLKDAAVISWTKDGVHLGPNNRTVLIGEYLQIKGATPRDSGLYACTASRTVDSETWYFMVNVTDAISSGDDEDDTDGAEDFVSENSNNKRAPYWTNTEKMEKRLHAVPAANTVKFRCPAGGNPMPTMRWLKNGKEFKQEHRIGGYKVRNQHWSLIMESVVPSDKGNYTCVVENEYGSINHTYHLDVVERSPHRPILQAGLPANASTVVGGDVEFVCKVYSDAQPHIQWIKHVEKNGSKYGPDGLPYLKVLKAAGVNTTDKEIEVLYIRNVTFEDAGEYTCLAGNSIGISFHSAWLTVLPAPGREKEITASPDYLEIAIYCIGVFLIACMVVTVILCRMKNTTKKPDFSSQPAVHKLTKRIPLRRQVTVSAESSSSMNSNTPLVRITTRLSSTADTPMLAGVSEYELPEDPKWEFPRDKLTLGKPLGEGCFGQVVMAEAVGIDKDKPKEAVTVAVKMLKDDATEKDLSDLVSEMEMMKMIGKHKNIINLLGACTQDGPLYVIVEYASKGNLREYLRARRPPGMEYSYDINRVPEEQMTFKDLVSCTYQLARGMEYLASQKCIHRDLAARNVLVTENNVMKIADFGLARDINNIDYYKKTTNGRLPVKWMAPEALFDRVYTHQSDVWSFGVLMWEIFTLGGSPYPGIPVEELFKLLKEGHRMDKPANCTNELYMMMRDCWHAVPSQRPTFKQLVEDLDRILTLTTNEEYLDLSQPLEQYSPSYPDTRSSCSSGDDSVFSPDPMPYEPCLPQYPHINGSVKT
T5 sequence (P22455 22-802): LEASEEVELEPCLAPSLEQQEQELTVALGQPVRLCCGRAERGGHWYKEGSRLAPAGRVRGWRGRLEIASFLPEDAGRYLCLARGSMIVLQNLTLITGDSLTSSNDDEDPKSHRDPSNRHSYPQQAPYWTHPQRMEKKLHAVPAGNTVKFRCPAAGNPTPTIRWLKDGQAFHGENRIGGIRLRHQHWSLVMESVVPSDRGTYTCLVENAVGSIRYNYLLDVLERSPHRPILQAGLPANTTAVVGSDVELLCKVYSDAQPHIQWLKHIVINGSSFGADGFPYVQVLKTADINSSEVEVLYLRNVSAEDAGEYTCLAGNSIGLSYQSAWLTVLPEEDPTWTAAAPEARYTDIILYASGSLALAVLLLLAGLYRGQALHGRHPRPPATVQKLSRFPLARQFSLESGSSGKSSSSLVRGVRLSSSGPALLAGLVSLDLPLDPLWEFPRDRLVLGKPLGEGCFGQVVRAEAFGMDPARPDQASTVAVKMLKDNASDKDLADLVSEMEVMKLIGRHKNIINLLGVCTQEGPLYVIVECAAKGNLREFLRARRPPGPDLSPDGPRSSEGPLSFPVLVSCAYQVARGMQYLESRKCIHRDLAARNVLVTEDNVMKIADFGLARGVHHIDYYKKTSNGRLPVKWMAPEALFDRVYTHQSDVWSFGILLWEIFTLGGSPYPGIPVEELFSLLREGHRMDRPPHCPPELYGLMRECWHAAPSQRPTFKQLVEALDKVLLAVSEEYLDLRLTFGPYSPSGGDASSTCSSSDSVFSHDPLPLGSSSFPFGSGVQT
T1 sequence (P11362 22-822): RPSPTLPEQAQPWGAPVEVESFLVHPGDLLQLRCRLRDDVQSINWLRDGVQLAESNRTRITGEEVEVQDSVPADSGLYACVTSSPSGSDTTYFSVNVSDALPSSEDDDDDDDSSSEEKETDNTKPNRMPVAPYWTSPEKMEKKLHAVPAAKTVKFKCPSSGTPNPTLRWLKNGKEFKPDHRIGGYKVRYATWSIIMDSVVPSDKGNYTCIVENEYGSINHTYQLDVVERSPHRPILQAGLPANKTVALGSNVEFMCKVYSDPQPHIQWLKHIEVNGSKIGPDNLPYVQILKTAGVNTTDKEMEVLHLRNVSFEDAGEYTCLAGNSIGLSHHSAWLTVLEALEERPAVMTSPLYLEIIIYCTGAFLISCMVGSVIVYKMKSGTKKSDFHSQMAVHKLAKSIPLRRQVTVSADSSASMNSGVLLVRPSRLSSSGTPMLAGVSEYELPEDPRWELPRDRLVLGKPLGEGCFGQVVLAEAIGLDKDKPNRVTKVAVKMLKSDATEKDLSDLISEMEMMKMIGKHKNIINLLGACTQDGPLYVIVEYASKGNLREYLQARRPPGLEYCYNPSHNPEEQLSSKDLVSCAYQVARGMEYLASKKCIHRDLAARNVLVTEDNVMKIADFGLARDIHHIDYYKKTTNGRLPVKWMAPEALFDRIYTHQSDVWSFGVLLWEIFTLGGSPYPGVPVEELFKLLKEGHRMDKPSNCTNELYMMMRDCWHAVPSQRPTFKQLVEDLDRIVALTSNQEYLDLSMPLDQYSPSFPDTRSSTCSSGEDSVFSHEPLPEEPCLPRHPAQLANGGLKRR

SMILES	Kd [1]	Kd [2]	Kd [3]	Kd [4]	Kd [5]	IC50 [6]	IC50 [7]	IC50 [8]	IC50 [9]
COc1cc2[nH]nc(-c3cnc(N4CC5(CC5)C4)nc3)c2cc1O[C@H](C)c1c(Cl)cncc1Cl [Example 62, 3-[2-(5-azaspiro[2.3]hexan-5-yl)pyrimidin-5-yl]-5-[(1R)-1-(3,5-dichloro-4-pyridyl)ethoxy]-6-methoxy-1H-indazole]	1 to 50 nM	1 to 50 nM	1 to 50 nM	1 to 50 nM	1 to 50 nM	0.1 to 50 nM	–	–	–
C[C@@H](Oc1cc2c(-c3cnc(N4CC(C)(N5CCOCC5)C4)c(C#N)c3)n[nH]c2cc1F)c1c(Cl)cncc1Cl [Example 124, (R)-5-(5-(1-(3,5-dichloropyridin-4-yl)ethoxy)-6-fluoro-1H-indazol-3-yl)-2-(3-methyl-3-morpholinoazetidin-1-yl)nicotinonitrile]	50 to 300 nM	50 to 300 nM	1 to 50 nM	1 to 50 nM	1 to 50 nM	50 to 200 nM	–	–	–
C[C@@H](Oc1cc2c(-c3cnc(N4CC(C)(NCCO)C4)c(C#N)c3)n[nH]c2cc1F)c1c(Cl)cncc1Cl [Example 129, (R)-5-(5-(1-(3,5-dichloropyridin-4-yl)ethoxy)-6-fluoro-1H-indazol-3-yl)-2-(3-((2-hydroxyethyl)amino)-3-methylazetidin-1-yl)nicotinonitrile]	–	–	–	–	–	50 to 200 nM	200 to 1000 nM	200 to 1000 nM	50 to 200 nM
C[C@@H](Oc1cc2c(-c3cnc(N4CC(C)(N5CCC5)C4)c(C#N)c3)n[nH]c2cc1F)c1c(Cl)cncc1Cl [Example 136, (R)-5-(5-(1-(3,5-dichloropyridin-4-yl)ethoxy)-6-fluoro-1H-indazol-3-yl)-2-(3′-methyl-[1,3′-biazetidin]-1′-yl)nicotinonitrile]	1 to 50 nM	1 to 50 nM	1 to 50 nM	1 to 50 nM	1 to 50 nM	50 to 200 nM	–	–	–
C[C@@H](Oc1cc2c(-c3cnc(N4CC(C)(CN5CCOCC5)C4)c(C#N)c3)n[nH]c2cc1F)c1c(Cl)cncc1Cl [Example 137, (R)-5-(5-(1-(3,5-dichloropyridin-4-yl)ethoxy)-6-fluoro-1H-indazol-3-yl)-2-(3-methyl-3-(morpholinomethyl)aze-tidin-1-yl)nicotinonitrile]	50 to 300 nM	50 to 300 nM	1 to 50 nM	1 to 50 nM	1 to 50 nM	50 to 200 nM	–	–	–
COc1cc2[nH]nc(-c3cnc(N4CC(CC#N)(NC(C)C)C4)c(C#N)c3)c2cc1O[C@H](C)c1c(Cl)cncc1Cl [Example 152, (R)-2-(3-(cyanomethyl)-3-(isopropylamino)azetidin-1-yl)-5-(5-(1-(3,5-dichloropyridin-4-yl)ethoxy)-6-methoxy-1H-indazol-3-yl)nicotinonitrile]	1 to 50 nM	1 to 50 nM	1 to 50 nM	–	1 to 50 nM	0.1 to 50 nM	50 to 200 nM	200 to 1000 nM	0.1 to 50 nM
CNC1(CC#N)CN(c2ncc(-c3n[nH]c4cc(OC)c(O[C@H](C)c5c(Cl)cncc5Cl)cc34)cc2C#N)C1 [Example 153, (R)-2-(3-(cyanomethyl)-3-(methylamino)azetidin-1-yl)-5-(5-(1-(3,5-dichloropyridin-4-yl)ethoxy)-6-methoxy-1H-indazol-3-yl)nicotinonitrile]	1 to 50 nM	1 to 50 nM	1 to 50 nM	–	1 to 50 nM	0.1 to 50 nM	0.1 to 50 nM	50 to 200 nM	0.1 to 50 nM
COc1cc2[nH]nc(-c3cnc(N4CC(C)(NC(C)C)C4)c(C#N)c3)c2cc1O[C@@H](C)c1c(Cl)cncc1Cl [Example 330, (S)-5-(5-(1-(3,5-dichloropyridin-4-yl)ethoxy)-6-methoxy-1H-indazol-3-yl)-2-(3-(isopropylamino)-3-methylazetidin-1-yl)nicotinonitrile]	300 to 1000 nM	300 to 1000 nM	50 to 300 nM	50 to 300 nM	1 to 50 nM	200 to 1000 nM	–	–	–
COc1cc2[nH]nc(-c3cnc(N4CC(C)(NCC(C)(C)O)C4)c(C#N)c3)c2cc1O[C@@H](C)c1c(Cl)cncc1Cl [Example 331, (S)-5-(5-(1-(3,5-dichloropyridin-4-yl)ethoxy)-6-methoxy-1H-indazol-3-yl)-2-(3-((2-hydroxy-2-methylpro-pyl)amino)-3-methylazetidin-1-yl)nicotinonitrile]	300 to 1000 nM	300 to 1000 nM	50 to 300 nM	50 to 300 nM	1 to 50 nM	200 to 1000 nM	–	–	–
COc1cc2[nH]nc(-c3cnc(N4CC(C)(CS(C)(=O)=O)C4)c(C#N)c3)c2cc1O[C@@H](C)c1c(Cl)cncc1Cl [Example 332, (S)-5-(5-(1-(3,5-dichloropyridin-4-yl)ethoxy)-6-methoxy-1H-indazol-3-yl)-2-(3-methyl-3-((methyl-sulfonyl)meth-yl)azetidin-1-yl)nicotinonitrile]	> 1000 nM	> 1000 nM	300 to 1000 nM	300 to 1000 nM	1 to 50 nM	200 to 1000 nM	–	–	–
COc1cc2[nH]nc(-c3cnc(N4CC(C)(NCC5CC5)C4)c(C#N)c3)c2cc1O[C@@H](C)c1c(Cl)cncc1Cl [Example 333, (S)-2-(3-((cyclopropyl-methyl)amino)-3-methylazetidin-1-yl)-5-(5-(1-(3,5-dichloropyridin-4-yl)ethoxy)-6-methoxy-1H-indazol-3-yl)nicotinonitrile]	300 to 1000 nM	> 1000 nM	50 to 300 nM	50 to 300 nM	1 to 50 nM	200 to 1000 nM	–	–	–
COc1cc2[nH]nc(-c3cnc(N4C[C@H](CS(C)(=O)=O)[C@H]4C)c(C#N)c3)c2cc1O[C@@H](C)c1c(Cl)cncc1Cl [Example 335, 5-(5-((S)-1-(3,5-dichloropyridin-4-yl)ethoxy)-6-methoxy-1H-indazol-3-yl)-2-((2R,3S)-2-methyl-3-((meth-ylsulfonyl)meth-yl)azetidin-1-yl)nicotinonitrile]	> 1000 nM	> 1000 nM	300 to 1000 nM	300 to 1000 nM	1 to 50 nM	200 to 1000 nM	–	–	–
COc1cc2[nH]nc(-c3cnc(N4CC(C)(N5C[C@@H]6C[C@H]5CO6)C4)c(C#N)c3)c2cc1O[C@H](C)c1c(Cl)cncc1Cl [Example 336, -(3-((1S,4S)-2-oxa-5-aza-bicyclo[2.2.1]hep-tan-5-y1)-3-methylazetidin-1-yl)-5-(5-((R)-1-(3,5-dichloropyridin-4-yl)ethoxy)-6-methoxy-1H-indazol-3-yl)nicotinonitrile]	1 to 50 nM	1 to 50 nM	1 to 50 nM	1 to 50 nM	1 to 50 nM	0.1 to 50 nM	–	–	–
COc1cc2[nH]nc(-c3cnc(N4CC(C)(NC(=O)CN(C)C)C4)c(C#N)c3)c2cc1O[C@H](C)c1c(Cl)cncc1Cl [Example 340, (R)-N-(1-(3-cyano-5-(5-(1-(3,5-dichloropyridin-4-yl)ethoxy)-6-methoxy-1H-indazol-3-yl)pyridin-2-yl)-3-methylazetidin-3-yl)-2-(dimethylamino)-acetamide]	1 to 50 nM	1 to 50 nM	–	–	1 to 50 nM	0.1 to 50 nM	50 to 200 nM	50 to 200 nM	0.1 to 50 nM
